Here are results for 4 molecules from US20040053852A1, “Preventing desensitization of receptors” (priority 2001, published 2004).

Molecules are shown by their SMILES.

One experiment relates to β-adrenergic receptor. Put plainly: Saturation binding with radiolabeled I125-cyanopindolol in purified cardiac membrane of treated mice. It counts as in vivo. The conditions noted are these: GSNO 10 ng/kg/day plus isoproterenol 30 mg/kg/day for 7 days. As to the method:
Mice were treated with 10 ng/kg/day of GSNO or PBS infused continuously for 1 week through an azlet miniosmotic pump placed subcutaneously. Another set of mice was treated for 7 days with isoproterenol (30 mg/kg/day), and the fourth and final group received for 7 days, isoproterenol (30 mg/kg/day) plus GSNO (10 ng/kg/day). The mice were sacrificed and heart tissue was removed.

The next experiment relates to heart muscle. Put plainly: Ratio of heart weight to body weight after 1 week continuous infusion. The experiment is classed as in vivo. The conditions noted are these: mice, FIG. 1. As to the method: Mice were treated with 10/ng/kg/day of GSNO, or with PBS (control) or with isoproterenol (at a dosage of 30 mg/kg/day) or with 10 mg/kg/day of GSNO plus 30 mg/kg/day isoproterenol, infused continuously for 1 week. The animals were sacrificed and the hearts were weighed and a ratio of heart weight to body weight was determined for each case. The results are set forth in FIG. 1 where hw:bw, i.e., the legend on the vertical axis, is the ratio of heart weight to total body weight and “ISO” means isoproterenol. […] The increase in size of heart (hypertrophy) is an advantage especially in the case of a patient on a left ventricular heart assist device awaiting heart transplant and in the case of a patient who has had heart surgery and cannot be disconnected from a heart pump without loss of heart function. The asterisks in FIG. 1 mean […] compared to control.

In the next experiment the test system is GRK. Nature of the experiment: GRK phosphorylation of a synthetic peptide substrate with 32P-ATP (isolated system). The experiment is classed as biochemical. As to conditions: 500 μM, 50 μM, 5 μm, FIG. 3. As for the experimental part: An isolated system was provided consisting of medium, GRK, standard synthetic peptide substrate and radiolabeled ^32P-adenosine triphosphate, i.e., ^32P-ATP, as a source of phosphate. Runs were carried out on the system without additives, and with 500 μM glutathione (GSH) present and with GSNO (500 μM) present or with GSNO (50 μM) present or with GSNO (5 μm) present. The amount of bound ^32P was measured in counts per minute (CPM).

A short description of experiment [1]: Patient with class 4 congestive heart failure (Example I). It counts as in vivo, human. As for the experimental part:
A person with class 4 congestive heart failure enters the hospital with shortness of breath and bradyacardia. […] The patient is subsequently switched to IV dobutamine at 10 μg per kg per minute titrated to cardiac output. Over the following three days the drug is increased to 30 μg per kg per minute to maintain cardiac output. […] The patient undergoes bypass surgery and does well even though they have been viewed as at high risk.

A short description of experiment [2]: Patient with metastatic prostate cancer, bone pain unresponsive to opiates (Example IV). It counts as in vivo, human. As to conditions: intravenous GSNO 10 nmol per kg per minute in conjunction with morphine. From the text: A person with metastatic prostate cancer is suffering from severe bone pain unresponsive to opiates.
Experiment [3] is described as follows: Patient with cystic fibrosis, shortness of breath (Example VI). The experiment is classed as in vivo, human. As to conditions: inhaled GSNO 3 cc of a 10 mM solution, pH 7, 4×/day. As for the experimental part:
A person with cystic fibrosis enters the hospital complaining of shortness of breath. […] They are started on inhaled GSNO (3 cc of a 10 mM solution, pH 7, 4×/day).

The nature of experiment [4]: Heroine addict, dose tapering, withdrawal symptoms (Example V). It counts as in vivo, human. The conditions noted are these: ethyl nitrite intravenously 2 nmol per kg per minute. From the text: A heroine addict enters a clinic where their dose is tapered gradually. In order to avoid symptoms of withdrawal, ethyl nitrite is started intravenously at 2 nmol per kg per minute and symptoms of withdrawal, including sweats and shaking, are ameliorated.

For the molecule `N[C@@H](CCC(=O)N[C@@H](CSN=O)C(=O)NCC(=O)O)C(=O)O` [GSNO, S-nitrosoglutathione], the “amount of β-adrenergic receptor” value in the experiment with β-adrenergic receptor is on record as 90 fmol per mg protein. Besides, in the experiment on heart muscle (10 mg/kg/day of GSNO plus 30 mg/kg/day isoproterenol infused continuously 1 week), the “size of heart muscle (hw:bw, ratio of heart weight to total body weight)” value was “even more effect in increasing size of heart muscle”. The “size of heart muscle (hw:bw, ratio of heart weight to total body weight)” value with heart muscle (GSNO 10/ng/kg/day infused continuously 1 week) is recorded as “increases the size of the heart muscle”. For the same molecule, the “incorporation of 32P into synthetic peptide substrate (bound 32P, CPM)” value in the experiment with GRK is given as “concentration dependent reduction in incorporation of ^32P”. Besides, the cardiac output entry in experiment [1] (IV GSNO 2 nmol per kg per minute, on dobutamine 30 μg per kg per minute) is recorded as “cardiac output improved over the following 24 hours”. Moreover, the bone pain entry in experiment [2] is “now relieves their pain”. Further, in experiment [3], the “FEV1, acute change” value was “does not change acutely” and the “FEV1 over the following 48 hours” value was “corresponding improvement in FEV1”. For the same molecule, in experiment [3] (following 48 hours), the “symptoms of shortness of breath” value was “resolve over the following 48 hours”.

On to `N[C@@H](CSN=O)C(=O)O` [S-nitroso-cysteine], for which, in the experiment with GRK, the “incorporation of 32P into synthetic peptide substrate (bound 32P, CPM)” value is “same result of GRK inhibition and interference with substrate phosphorylation”.

For the molecule `CCON=O` [ethyl nitrite], the symptoms of withdrawal result in experiment [4] is on record as “ameliorated”.

`CC(C)NCC(O)c1ccc(O)c(O)c1` (stereo not shown) [isoproterenol, reference compound]: the “size of heart muscle (hw:bw, ratio of heart weight to total body weight)” value in the experiment on heart muscle (isoproterenol 30 mg/kg/day infused continuously 1 week) is on record as “increased the size of the heart muscle”. For the same molecule, the “symptoms (shortness of breath, bradyacardia)” value in experiment [1] (intravenous isoproterenol 10 μg per minute) was “resolution of symptoms”.
